Results reported in patent publication US9493487B2, “3-(1H-imidazo[4,5-C]pyridin-2-YL)-1H-pyrazolo[3,4-B]pyridine and therapeutic uses thereof” (Samumed, LLC, priority 2014, dated 2016).

Experiments:
[1] = tested on: Wnt activity (Sp5-Luc reporter, SW480 colon carcinoma cells); assay: Sp5-Luc Wnt reporter gene assay in SW480 colon carcinoma cells; format: cell-based; conditions: Homo sapiens; SW480 cells stably expressing Sp5-Luc reporter; 42 h incubation; BrightGlo luminescence normalized to DMSO
Method in brief: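 IC50 values come from variable-slope four-parameter fits of luciferase signal normalized to DMSO wells. Stable Sp5-Luc reporter SW480 colon carcinoma cells were exposed to compounds in a 3-fold dilution series (source plates from 10 mM stock) for forty-two hours at 37 °C.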

[2] = tested on: primary human fibroblasts derived from IPF patients (LL29 cells); assay: Inhibition of TGF-β1-induced fibrosis (αSMA staining) in primary human fibroblasts from IPF patients; format: cell-based; conditions: Fibroblast, 96 h, TGF-β1 20 ng/mL, 4 days, 11-point dose-response 10 μM to 1.87 nM
Source text: The above synthesized compounds were screened using primary human fibroblasts (derived from IPF patients) treated with TGF-β1 to determine their ability to inhibit the fibrotic process.
Primary human fibroblasts derived from IPF patients (LL29 cells) [^1Xiaoqiu Liu, et. al., “Fibrotic Lung Fibroblasts Show Blunted Inhibition by cAMP Due to Deficient cAMP Response Element-Binding Protein Phosphorylation”, Journal of Pharmacology and Experimental Therapeutics (2005), 315(2), 678-687; ^2Watts, K. L., et. al., “RhoA signaling modulates cyclin D1 expression in human lung fibroblasts; implications for idiopathic pulmonary fibrosis”, Respiratory Research (2006), 7(1), 88] were obtained from American Type Culture Collection (ATCC) and expanded in F12 medium supplemented with 15% Fetal Bovine Serum and Penicillin/Streptomycin.
Each compound was dissolved in DMSO as a 10 mM stock and used to prepare compound source plates. Serial dilution (1:2, 11-point dose-response curves from 10 μM to 1.87 nM) and compound transfer was performed using the ECHO 550 (Labcyte, Sunnyvale, Calif.) into 384-well clear bottom assay plates (Greiner Bio-One) with appropriate DMSO backfill for a final DMSO concentration of 0.1%. LL29 cells were plated at 1,500 cells/well in 80 μl/well F12 medium supplemented with 1% Fetal Bovine Serum. One hour after addition of the cells, TGF-β1 (Peprotech; 20 ng/mL) was added to the plates to induce fibrosis (ref. 1 and 2 above). Wells treated with TGF-β1 and containing DMSO were used as controls. Cells were incubated at 37° C. and 5% CO2 for 4 days. Following incubation for 4 days, SYTOX green nucleic acid stain (Life Technologies [Thermo Fisher Scientific]) was added to the wells at a final concentration of 1 uM and incubated at room temperature for 30 min. Cells were then fixed using 4% formaldehyde (Electron Microscopy Sciences), washed 3 times with PBS followed by blocking and permeabilization using 3% Bovine Serum Albumin (BSA; Sigma) and 0.3% Triton X-100 (Sigma) in PBS. Cells were then stained with antibody specific to α-smooth muscle actin (αSMA; Abcam) (ref 1 and 2 above) in 3% Bovine Serum Albumin (BSA; Sigma) and 0.3% Triton X-100 (Sigma) in PBS, and incubated overnight at 4° C. Cells were then washed 3 times with PBS, followed by incubation with Alexa Flor-647 conjugated secondary antibody (Life Technologies [Thermo Fisher Scientific]) and DAPI at room temperature for 1 hour. Cells were then washed 3 times with PBS and plates were sealed for imaging. αSMA staining was imaged by excitation at 630 nm and emission at 665 nm and quantified using the Compartmental Analysis program on the CellInsight CX5 (Thermo Scientific). Dead or apoptotic cells were excluded from analysis based on positive SYTOX green staining. % of total cells positive for αSMA were counted in each well and normalized to the average of 11 wells treated with TGF-β1 on the same plate using Dotmatics' Studies Software. The normalized averages (fold change over untreated) of 3 replicate wells for each compound concentration were used to create dose-responses curves and EC50 values were calculated using non-linear regression curve fit in the Dotmatics' Studies Software. The EC50 values are reported.

| SMILES | IC50 [1] [nM] | EC50 [2] [nM] |
| --- | --- | --- |
| FC1(F)CCN(Cc2cncc(-c3cnc4[nH]nc(-c5nc6c(N7CCCCC7)nccc6[nH]5)c4c3)c2)C1 [Compound 181, 5-(5-((3,3-Difluoropyrrolidin-1-yl)methyl)pyridin-3-yl)-3-(4-(piperidin-1-yl)-1H-imidazo[4,5-c]pyridin-2-yl)-1H-pyrazolo[3,4-b]pyridine] | 243 | 1130 |
| Cc1cn(-c2nccc3[nH]c(-c4n[nH]c5ncc(-c6cncc(CN7CCCC7)c6)cc45)nc23)cn1 [Compound 196, 3-(4-(4-Methyl-1H-imidazol-1-yl)-1H-imidazo[4,5-c]pyridin-2-yl)-5-(5-(pyrrolidin-1-ylmethyl)pyridin-3-yl)-1H-pyrazolo[3,4-b]pyridine] | 579 | ≥ 9990 |
| CN1CCN(c2nccc3[nH]c(-c4n[nH]c5ncc(-c6cncc(N)c6)cc45)nc23)CC1 [Compound 211, 5-(3-(4-(4-Methylpiperazin-1-yl)-1H-imidazo[4,5-c]pyridin-2-yl)-1H-pyrazolo[3,4-b]pyridin-5-yl)pyridin-3-amine] | 334 | ≥ 9990 |
| CN1CCN(c2nccc3[nH]c(-c4n[nH]c5ncc(-c6cncc(CN7CCCCC7)c6)cc45)nc23)CC1 [Compound 223, 3-(4-(4-Methylpiperazin-1-yl)-1H-imidazo[4,5-c]pyridin-2-yl)-5-(5-(piperidin-1-ylmethyl)pyridin-3-yl)-1H-pyrazolo[3,4-b]pyridine] | > 10000 | ≥ 9990 |
| Cc1ccncc1-c1cnc2[nH]nc(-c3nc4c(-c5ccsc5)nccc4[nH]3)c2c1 [Compound 239, 5-(4-Methylpyridin-3-yl)-3-(4-(thiophen-3-yl)-1H-imidazo[4,5-c]pyridin-2-yl)-1H-pyrazolo[3,4-b]pyridine] | 18 | 24 |
| O=C(Nc1cncc(-c2cnc3[nH]nc(-c4nc5c(-c6ccsc6)nccc5[nH]4)c3c2)c1)c1ccccc1 [Compound 245, N-(5-(3-(4-(Thiophen-3-yl)-1H-imidazo[4,5-c]pyridin-2-yl)-1H-pyrazolo[3,4-b]pyridin-5-yl)pyridin-3-yl)benzamide] | 102 | 280 |
| c1ccc(CNCc2cncc(-c3cnc4[nH]nc(-c5nc6c(-c7ccsc7)nccc6[nH]5)c4c3)c2)cc1 [Compound 257, N-Benzyl-1-(5-(3-(4-(thiophen-3-yl)-1H-imidazo[4,5-c]pyridin-2-yl)-1H-pyrazolo[3,4-b]pyridin-5-yl)pyridin-3-yl)methanamine] | 309 | 244 |
| c1cc2[nH]c(-c3n[nH]c4ncc(-c5cncc(CNCC6CCCC6)c5)cc34)nc2c(-c2ccoc2)n1 [Compound 284, 1-Cyclopentyl-N-((5-(3-(4-(furan-3-yl)-1H-imidazo[4,5-c]pyridin-2-yl)-1H-pyrazolo[3,4-b]pyridin-5-yl)pyridin-3-yl)methyl)methanamine] | 875 | 1180 |
| CCC(=O)Nc1cncc(-c2cnc3[nH]nc(-c4nc5c(-c6cccs6)nccc5[nH]4)c3c2)c1 [Compound 287, N-(5-(3-(4-(Thiophen-2-yl)-1H-imidazo[4,5-c]pyridin-2-yl)-1H-pyrazolo[3,4-b]pyridin-5-yl)pyridin-3-yl)propionamide] | 22.9 | 578 |
| CN(C)c1cncc(-c2cnc3[nH]nc(-c4nc5c(-c6cccs6)nccc5[nH]4)c3c2)c1 [Compound 293, N,N-Dimethyl-5-(3-(4-(thiophen-2-yl)-1H-imidazo[4,5-c]pyridin-2-yl)-1H-pyrazolo[3,4-b]pyridin-5-yl)pyridin-3-amine] | 37.1 | 9 |
| CN(C)Cc1cncc(-c2cnc3[nH]nc(-c4nc5c(-c6cccs6)nccc5[nH]4)c3c2)c1 [Compound 299, N,N-Dimethyl-1-(5-(3-(4-(thiophen-2-yl)-1H-imidazo[4,5-c]pyridin-2-yl)-1H-pyrazolo[3,4-b]pyridin-5-yl)pyridin-3-yl)methanamine] | 1440 | ≥ 9990 |
